Experimental findings from PubChem BioAssay (NCI) are described below.

Each structure is given as a SMILES string.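 The compound was tested at five concentrations on cells cultured in 96-well plates, with a 48-hour exposure period. TGI is the concentration that stops growth completely.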 A value given as a limit tells only on which side of the number the result lay.

Test systems include 786-0 renal; EKVX NSCLC; HT29 colon; K-562 leukemia; MDA-MB-435; NCI-H460 lung; NCI-H522 lung; NCI/ADR-RES ovarian; OVCAR-3 ovarian; PC-3 prostate; RPMI-8226 leukemia; RXF 393 renal; SF-268 CNS; SK-MEL-5 melanoma; SN12C renal; SNB-19 CNS; TK-10 renal; UACC-62 melanoma; OVCAR-8 ovarian; SF-539 CNS.
What all share (assay): inhibition of tumour cell growth, NCI panel, 48 h

For `O=C(CSc1nc2ccc(I)cc2c(=O)n1Cc1ccccc1)NNC(=S)Nc1ccccc1`, the TGI in the test on 786-0 renal was above 100 µM; with EKVX NSCLC, 6.14 µM; in the test with HT29 colon, above 100 µM; with K-562 leukemia it was above 100 µM; in the test on MDA-MB-435, above 100 µM; with NCI-H460 lung it was above 100 µM. Moreover, the TGI in the test on NCI-H522 lung, in the test on NCI/ADR-RES ovarian, in the test with OVCAR-3 ovarian, in the test with PC-3 prostate, with RPMI-8226 leukemia and in the test on RXF 393 renal was above 100 µM each time. In addition, the TGI in the test with SF-268 CNS, in the test with SK-MEL-5 melanoma, in the test with SN12C renal, in the test on SNB-19 CNS, in the test on TK-10 renal and in the test on UACC-62 melanoma was above 100 µM in each case.

Consider `C[C@@H](c1ccccc1)N1C[C@@H](c2ccc3c(c2)OCO3)[C@@H]2C(=O)CCC[C@@H]21`, for which the TGI in the test with 786-0 renal, with EKVX NSCLC, in the test on HT29 colon, in the test with K-562 leukemia, in the test on MDA-MB-435 and with NCI-H460 lung was above 100 µM throughout. Moreover, the TGI in the test with NCI-H522 lung is above 100 µM; with NCI/ADR-RES ovarian it was above 100 µM; with OVCAR-8 ovarian it was above 100 µM; with PC-3 prostate, above 100 µM; with RPMI-8226 leukemia, 92.8 µM; in the test with RXF 393 renal it was above 100 µM. The TGI was above 100 µM in the test on SF-268 CNS; above 100 µM with SK-MEL-5 melanoma; above 100 µM in the test with SN12C renal; above 100 µM in the test on SNB-19 CNS; above 100 µM in the test on TK-10 renal; 52 µM in the test on UACC-62 melanoma.

For the compound `C[C@H](CCC(=O)O)[C@H]1CC[C@H]2[C@@H]3[C@H](O)[C@H](O)[C@@H]4C[C@H](O)CC[C@]4(C)[C@H]3CC[C@]12C`, the TGI in the test with 786-0 renal, with EKVX NSCLC, in the test with HT29 colon, in the test with K-562 leukemia, with MDA-MB-435 and in the test with NCI-H460 lung was above 100 µM in each case. Also, the TGI with NCI-H522 lung, with NCI/ADR-RES ovarian, in the test with OVCAR-8 ovarian, in the test with PC-3 prostate, in the test with RPMI-8226 leukemia and with RXF 393 renal was above 100 µM in each case. Also, the TGI with SF-268 CNS, in the test on SF-539 CNS, in the test with SN12C renal, in the test with SNB-19 CNS, in the test with TK-10 renal and with UACC-62 melanoma was above 100 µM throughout.

For `Cc1c(C)c(S(=O)(=O)N(CCCN)OCCCN)c(C)c2c1OC(C)(C)CC2`, the TGI was determined as 29.4 µM in the test with 786-0 renal; 30.4 µM with EKVX NSCLC; 28.4 µM in the test with HT29 colon; 29.6 µM in the test on K-562 leukemia; 29.6 µM in the test with MDA-MB-435; 30.3 µM in the test on NCI-H460 lung. The TGI with NCI-H522 lung was determined as 28.4 µM; with NCI/ADR-RES ovarian, 60.1 µM; in the test on OVCAR-3 ovarian, 29.5 µM; in the test with OVCAR-8 ovarian, 29.8 µM; with PC-3 prostate, 24.5 µM; in the test on RPMI-8226 leukemia, 35.7 µM. Besides, the TGI in the test on RXF 393 renal is 21.4 µM; in the test on SF-268 CNS, 26.9 µM; in the test on SK-MEL-5 melanoma it was 29 µM; with SN12C renal, 28.4 µM; in the test with SNB-19 CNS, 24.9 µM; in the test with TK-10 renal, 28 µM. The compound also returned a TGI in the test with UACC-62 melanoma of 28 µM.

Regarding `C[C@H](CCC(=O)O)[C@H]1CC[C@H]2[C@@H]3[C@@H](O)C[C@@H]4C[C@H](O)CC[C@]4(C)[C@H]3C[C@H](O)[C@]12C`, the TGI in the test with 786-0 renal, in the test with EKVX NSCLC, in the test with HT29 colon, with K-562 leukemia, in the test with MDA-MB-435 and in the test with NCI-H460 lung was above 100 µM throughout. The TGI in the test on NCI-H522 lung, in the test with NCI/ADR-RES ovarian, in the test with OVCAR-8 ovarian, in the test on PC-3 prostate, in the test with RPMI-8226 leukemia and in the test on RXF 393 renal was above 100 µM each time. Further, the TGI in the test with SF-268 CNS, with SF-539 CNS, with SN12C renal, in the test with SNB-19 CNS, with TK-10 renal and in the test with UACC-62 melanoma was above 100 µM each time.

`COP(=O)(/C=C/C(NC(=O)C(Cl)(Cl)Cl)c1ccccc1)OC` (stereo unspecified): the TGI in the test on 786-0 renal, in the test with EKVX NSCLC, with HT29 colon, in the test with K-562 leukemia, in the test with MDA-MB-435 and in the test with NCI-H460 lung was above 100 µM in each case. Also, the TGI in the test on NCI-H522 lung, in the test with NCI/ADR-RES ovarian, with OVCAR-3 ovarian, with OVCAR-8 ovarian, with PC-3 prostate and with RPMI-8226 leukemia was above 100 µM throughout. Further, the TGI with RXF 393 renal, in the test with SF-268 CNS, in the test on SK-MEL-5 melanoma, in the test on SN12C renal, with SNB-19 CNS and with TK-10 renal was above 100 µM in each case. The compound further had a TGI in the test with UACC-62 melanoma above 100 µM.

In the case of `N#CC12CC(C=O)=C(N)C1(C#N)CC(C=O)=C2N` (stereo unspecified), the TGI in the test with 786-0 renal, in the test on EKVX NSCLC, in the test on HT29 colon, with K-562 leukemia, in the test on MDA-MB-435 and in the test on NCI-H522 lung was above 100 µM throughout. Further, the TGI in the test on NCI/ADR-RES ovarian, with OVCAR-8 ovarian, in the test with PC-3 prostate, in the test on RPMI-8226 leukemia, in the test with RXF 393 renal and in the test with SF-268 CNS was above 100 µM in each case. Also, the TGI was above 100 µM in the test on SF-539 CNS; 54.1 µM in the test on SK-MEL-5 melanoma; above 100 µM in the test with SN12C renal; above 100 µM in the test on SNB-19 CNS; above 100 µM in the test with TK-10 renal; above 100 µM with UACC-62 melanoma.

For `COc1c(C)c(C/C=C(\C)CC/C=C(\C)CC/C=C(\C)CC/C=C(\C)CCC=C(C)C)c(OC)c(OC)c1OC`, the TGI is 31.8 µM in the test on 786-0 renal; above 100 µM in the test with EKVX NSCLC; above 100 µM with HT29 colon; 55.1 µM in the test on K-562 leukemia; above 100 µM in the test with MDA-MB-435; 23.2 µM in the test on NCI-H460 lung. Further, the TGI in the test on NCI-H522 lung is 31.4 µM; with NCI/ADR-RES ovarian it was 59.8 µM; in the test on OVCAR-3 ovarian, above 100 µM; in the test on OVCAR-8 ovarian, 46.1 µM; with PC-3 prostate it was above 100 µM; with RXF 393 renal, above 100 µM. The TGI was 39.4 µM in the test on SF-268 CNS; above 100 µM in the test on SF-539 CNS; 38.1 µM in the test with SK-MEL-5 melanoma; 52.7 µM in the test on SN12C renal; above 100 µM in the test with SNB-19 CNS; 69 µM in the test on TK-10 renal. This compound came in with a TGI in the test on UACC-62 melanoma above 100 µM.

Turning to `COc1ccccc1N1C(=O)CSC1c1cccc(Oc2ccccc2)c1` (stereo unspecified), the TGI with 786-0 renal is 32.5 µM; in the test on EKVX NSCLC it was 43.4 µM; in the test on HT29 colon, 46.7 µM; in the test on K-562 leukemia, 70.2 µM; in the test with MDA-MB-435 it was 32 µM; in the test with NCI-H460 lung it was 33.3 µM. Moreover, the TGI with NCI-H522 lung was 34.7 µM; with NCI/ADR-RES ovarian it was 46.2 µM; in the test with OVCAR-3 ovarian, 45.1 µM; with OVCAR-8 ovarian it was 37.5 µM; with PC-3 prostate, 40 µM; with RXF 393 renal it was 33.6 µM. Further, the TGI stood at 36.3 µM in the test on SF-268 CNS; 31.6 µM in the test with SF-539 CNS; 29.9 µM with SK-MEL-5 melanoma; 31.9 µM in the test on SN12C renal; 56.1 µM in the test with SNB-19 CNS; 48.4 µM with TK-10 renal. The same compound showed a TGI in the test with UACC-62 melanoma of 30.1 µM.

In the case of `CCOP(=O)(OCC)/C(=C\n1ccc(=O)[nH]c1=S)C(=O)OC`, the TGI in the test with 786-0 renal, with EKVX NSCLC, with HT29 colon, with K-562 leukemia, with MDA-MB-435 and with NCI-H460 lung was above 100 µM in each case. Further, the TGI in the test on NCI-H522 lung, in the test on NCI/ADR-RES ovarian, in the test with OVCAR-8 ovarian, in the test with PC-3 prostate, in the test on RPMI-8226 leukemia and with RXF 393 renal was above 100 µM each time. Moreover, the TGI with SF-268 CNS, with SF-539 CNS, with SK-MEL-5 melanoma, with SN12C renal and in the test with UACC-62 melanoma was above 100 µM throughout.

For `C[n+]1c2ccccc2n2c3ccccc3c(NCc3ccco3)c(C#N)c21`, the TGI in the test with 786-0 renal is 12.8 µM; in the test on EKVX NSCLC it was 13.6 µM; in the test on HT29 colon, above 100 µM; with K-562 leukemia, above 21.1 µM; in the test with MDA-MB-435 it was 4.34 µM; in the test on NCI-H460 lung it was 4.19 µM. The TGI in the test on NCI-H522 lung is 2.83 µM; with NCI/ADR-RES ovarian, 9.55 µM; in the test on OVCAR-3 ovarian, above 49.6 µM; with PC-3 prostate it was 22.7 µM; in the test with RXF 393 renal, 6.21 µM; in the test on SF-268 CNS, 11.3 µM. The TGI was 8.79 µM in the test with SF-539 CNS; 13.7 µM with SK-MEL-5 melanoma; 9.82 µM with SN12C renal; 26.6 µM in the test with SNB-19 CNS; 11.3 µM in the test with TK-10 renal; 11.7 µM in the test with UACC-62 melanoma.
